Assay results: patent publication US20250210145A1, “METHOD FOR DETERMINING THE RESISTANCE OF A MICROORGANISM TO AN ANTIMICROBIAL AGENT” (Commissariat à l'Energie Atomique et aux Energies …, priority 2023, published 2025)

Legend:
[1] = test system: Escherichia coli strain ATCC25922 ("EC10"); conditions: cited from earlier work
[2] = test system: Escherichia coli strain ATCC35218 ("EC207"); conditions: cited from earlier work
[3] = test system: Escherichia coli strain ATCC35218 ("EC207"); assay: FTIR heavy-water labeling level (metabolism) versus antibiotic concentration, strain EC207; format: cell-based; conditions: FIG. 4C, amoxicillin 1-64 μg/mL, two hours incubation, Mueller-Hinton medium with 50% v/v heavy water
Protocol: (§1) Once the LDA classifier had been parameterized, it was used in a test phase on Escherichia coli cultures.
(§2) An overnight pre-culture was performed to synchronize the metabolic states of the bacterial populations. Test samples were prepared using different concentrations of amoxicillin (64, 32, 16, 8, 4, 2 and 1 μg/mL), and a culture of each strain was prepared in 2 ml of Mueller-Hinton medium with 50% v/v heavy water and antibiotic. A control sample without antibiotic was prepared. The test samples were then incubated for two hours. After incubation, the test samples were centrifuged and re-suspended in 30 μL of water, then a 5 μl drop was placed on a calcium fluoride slide. The slide was dried by exposure to a hot, dry atmosphere. On each test sample, 64 spectra are acquired using an FTIR microscope at 15× magnification, in order to eliminate potential variations in the sample's thickness of texture.
(§3) This provided test spectra corresponding to the exposure of bacterial strains to different antibiotic concentrations. The algorithm parameterized during the training phase enabled measuring a labeling level for each sample, which is considered representative of metabolic activity.

[4] = test system: Escherichia coli strain ATCC25922 ("EC10"); assay: FTIR heavy-water labeling level (metabolism) versus antibiotic concentration, strain EC10; format: cell-based; conditions: FIG. 4C, amoxicillin 1-64 μg/mL, two hours incubation, Mueller-Hinton medium with 50% v/v heavy water
Protocol: as §1, §2, §3

[5] = test system: Staphylococcus Saprophyticus strains SS91, SS96; assay: FTIR heavy-water labeling level (metabolism) versus antibiotic concentration, strains not used during training; format: cell-based; conditions: FIG. 5; each of strains SS91 and SS96, above a strain-specific antibiotic concentration (value not given)
From the text: The x-axis corresponds to the antibiotic concentration (Gentamicin). The y-axis corresponds to a labeling level.

Molecule	sensitivity to the antibiotic (reference strain status) [1]	concentration above which growth inhibition is exhibited ([1]; reference strain ATCC25922 (EC10))	sensitivity to the antibiotic (reference strain status) [2]	resistance judged from labeling level (metabolism) [3]	concentration above which the strain is sensitive (labeling level decreases) [4]	labeling level as a function of antibiotic concentration [5]
CC1(C)S[C@@H]2[C@H](NC(=O)[C@H](N)c3ccc(O)cc3)C(=O)N2[C@H]1C(=O)O [amoxicillin]	sensitive	4 µg/mL	resistant	resistant to all the antibiotic concentrations used	~10 µg/mL	
Gentamicin						labeling level decreases
